How the values were obtained:
[1] = test system: Hck kinase domain; assay: pTyr-Var library bacterial peptide display kinase screen (enrichment scores); assay type: biochemical, human
[2] = test system: SHP2 C-SH2 domain; assay: pTyr-Var library SH2 domain screen with SH2-dynabeads (enrichment scores)
[3] = biological target: c-Src kinase domain (Homo sapiens, UniProt P12931); assay: pTyr-Var library bacterial peptide display kinase screen (enrichment scores); assay type: biochemical
[4] = test system: FGFR1 kinase domain; assay: as above; assay type: biochemical, human
[5] = biological target: T1, c-Abl kinase domain (Mus musculus, UniProt P00520); assay: as above; assay type: biochemical
T1 sequence (P00520 242-493 limits assumed): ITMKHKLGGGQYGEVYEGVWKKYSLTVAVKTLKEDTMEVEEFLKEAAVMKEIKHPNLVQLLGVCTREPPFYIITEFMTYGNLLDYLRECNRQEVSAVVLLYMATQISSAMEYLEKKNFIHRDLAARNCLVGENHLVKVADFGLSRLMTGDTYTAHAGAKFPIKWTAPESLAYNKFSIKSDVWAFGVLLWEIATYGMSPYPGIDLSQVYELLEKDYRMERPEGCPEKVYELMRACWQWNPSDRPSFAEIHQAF

[6] = test system: Grb2 SH2 domain; assay: pTyr-Var library SH2 domain screen with SH2-dynabeads (enrichment scores)
[7] = test system: AncSZ kinase domain; assay: pTyr-Var library bacterial peptide display kinase screen (enrichment scores); assay type: biochemical
[8] = test system: Fyn kinase domain; assay: as above; assay type: biochemical, human
[9] = biological target: c-Src SH2 domain (Homo sapiens, UniProt P12931); assay: pTyr-Var library SH2 domain screen with SH2-dynabeads (enrichment scores)
[10] = test system: FGFR3 kinase domain; assay: pTyr-Var library bacterial peptide display kinase screen (enrichment scores); assay type: biochemical, human
[11] = test system: EPHB2 kinase domain; assay: as above; assay type: biochemical, human
[12] = test system: Fer kinase domain; assay: as above; assay type: biochemical, mouse
[13] = test system: EPHB1 kinase domain; assay: as above; assay type: biochemical, human
[14] = test system: 4G10 Platinum pan-phosphotyrosine antibody; assay: Phosphorylated pTyr-Var library selection with biotinylated pan-phosphotyrosine antibody; assay type: binding, mouse; conditions: enrichment score, sheet SH2-vs-peptide
[15] = test system: Fes; assay: pTyr-Var library bacterial peptide display kinase screen (enrichment scores); assay type: biochemical; conditions: mean of log2 of enrichment over R1-R6
[16] = test system: MERTK kinase domain; assay: as above; assay type: biochemical, human
[17] = test system: Jak2; assay: as above; assay type: biochemical, human
[18] = pTyr-Var library, enrichment score, replicate 1
[19] = pTyr-Var library, enrichment score, replicate 3
[20] = pTyr-Var library, enrichment score, replicate 4
[21] = mean of log2 of enrichment over R1-R4
[22] = mean of log2 enrichment of reference peptide, n = 5
[23] = pTyr-Var library, reference peptide enrichment, mean of n = 5
[24] = mean of log2 enrichment of reference peptide, n = 4
[25] = pTyr-Var library, reference peptide enrichment, mean of n = 4

Hck mean of log2(enrichment) ([1]; mean of log2(variant) / mean of log2(reference), R1-R4): 0.599
Hck enrich. R1 [1, 18]: 0.4967
Hck enrich. R3 [1, 19]: 0.9831
Hck enrich. R4 [1, 20]: 0.3063
c-Src mean of log2(enrichment) [3, 21]: -1.394
c-Src enrich. R1 [3, 18]: 0.4801
c-Src enrich. R3 [3, 19]: 0.3246
c-Src enrich. R4 [3, 20]: 0.3798
mean of log2(reference) [4, 22]: -0.9981
ref. mean [4, 23]: 0.5192
c-Abl mean of log2(enrichment) [5, 21]: -0.5355
c-Abl enrich. R1 [5, 18]: 0.4542
c-Abl enrich. R3 [5, 19]: 0.6528
c-Abl enrich. R4 [5, 20]: 0.8371
AncSZ mean of log2(enrichment) ([7]; mean of log2 of enrichment over R1-R5): -0.4662
AncSZ enrich. R1 [7, 18]: 0.5771
AncSZ enrich. R3 [7, 19]: 0.5974
AncSZ enrich. R4 [7, 20]: 1.037
AncSZ enrich. R5 ([7]; pTyr-Var library, enrichment score, replicate 5): 0.9242
Fyn mean of log2(enrichment) [8, 21]: -1.219
Fyn enrich. R1 [8, 18]: 0.5501
Fyn enrich. R3 [8, 19]: 0.3301
Fyn enrich. R4 [8, 20]: 0.4584
c-Src (mean) ([9]; enrichment score, phosphorylated pTyr-Var library, sheet SH2-vs-peptide, mean): 0.535
mean of log2(reference) ([9]; mean of log2 enrichment of reference peptide, R1-R3, sheet c-Src): -0.9781
ref. mean ([9]; reference peptide, mean of R1-R3, sheet c-Src): 0.535
mean of log2(reference) [10, 22]: -0.6609
ref. mean [10, 23]: 0.649
mean of log2(reference) [11, 24]: -0.8971
ref. mean [11, 25]: 0.5418
Fer mean of log2(enrichment) [12, 21]: -1.275
Fer enrich. R1 [12, 18]: 0.6179
Fer enrich. R3 [12, 19]: 0.5252
Fer enrich. R4 [12, 20]: 0.2478
mean of log2(reference) [13, 24]: -0.6057
ref. mean [13, 25]: 0.6623
Fes mean of log2(enrichment) [15]: -0.04028
mean of log2(reference) [16, 24]: -1.427
ref. mean [16, 25]: 0.3924
Jak2 mean of log2(enrichment) ([17]; mean of log2 of enrichment over R1-R3): -0.2312
Jak2 enrich. R1 [17, 18]: 0.7671
Jak2 enrich. R3 [17, 19]: 0.8013
Sequence: ATVLNYLPKCI [A2M_Y817]
mean of log2(reference) ([2]; SHP2-C SH2, mean of log2 enrichment of reference, R1-R3): -0.4562
ref. mean ([2]; reference peptide enrichment score, SHP2-C SH2, mean of R1-R3): 0.736
mean of log2(reference) ([6]; Grb2 SH2, mean of log2 enrichment of reference, R1-R3): -0.1568
ref. mean ([6]; reference peptide enrichment score, Grb2 SH2, mean of R1-R3): 0.8993
4G10 (mean) [14]: 0.6373
